# Measured values: patent US20240209401A1, “CULTURE MEDIUM COMPOSITION FOR INCREASING GROWTH AND METABOLIC RATE OF ACETOGENIC STRAIN AND METHOD FOR CULTURING ACETOGENIC STRAIN USING THE SAME” (GWANGJU INSTITUTE OF SCIENCE AND TECHNOLOGY, priority 2022, published 2024)
# Tests used:
# acetogen strain [1] = assay: Steady-state culture (dilution rate of 0.018/h) with CO and CO2 gas substrates; type: cell-based; conditions: methanol added
# From the text: The method for culturing an acetogen strain may include a medium injection step of injecting the acetogen strain culture medium composition containing the C1 compound into a bioreactor; a strain inoculation step of inoculating the acetogenic strain into the culture medium composition; and a bioreactor driving step of culturing the acetogenic strain by driving the bioreactor. […]
# acetogen strain [2] = assay: Growth inhibition by high methanol concentration in the medium; type: cell-based; conditions: with respect to the total medium composition
# From the text: In this case, the methanol may be contained in a concentration of more than 0 M and 1.5 M or less with respect to the total medium composition.
# If the concentration of methanol exceeds 1.5 M, it is not preferable because growth inhibition occurs due to the addition of a high concentration of organic solvent.
smiles,measurement,setting,value
CO [methanol],cell concentration in the steady state,acetogen strain [1],17.4 g/L
same,cell conversion yield,acetogen strain [1],0.008 g DCW/mmol MeOH
same,concentration of methanol at which growth inhibition occurs,acetogen strain [2],exceeds 1.5 M
